Data published in ChEMBL document CHEMBL1201862, “PubChem BioAssay data set” (2004).
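Dose response: 5 concentrations. Exposure: 48 h. Format: 96-well plates. Endpoint: linear interpolation; highest concentration if not reached. Abbreviation: GI50, concentration required for 50% inhibition of growth.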 Active and inactive are the calls of the source. Rule as the data show it: active = GI50 up to about 1.1 µM and inactive = higher.

Experiments:
Assay in all cases: NCI-60 cell line screen, 48 h
[1] = system: 786-0
[2] = system: A498
[3] = system: A549
[4] = system: ACHN
[5] = system: CAKI-1
[6] = system: COLO 205
[7] = system: HOP-62
[8] = system: HOP-92
[9] = system: KM12
[10] = system: MDA-N
[11] = system: NCI-H23
[12] = system: OVCAR-4
[13] = system: OVCAR-8
[14] = system: RXF 393
[15] = system: SNB-19
[16] = system: U-251
[17] = system: UACC-257
[18] = system: UO-31
[19] = system: DU-145
[20] = system: T47D

Row | Structure (SMILES) | GI50 [1] | GI50 [2] | GI50 [3] | GI50 [4] | GI50 [5] | GI50 [6] | GI50 [7] | GI50 [8] | GI50 [9] | GI50 [10] | GI50 [11] | GI50 [12] | GI50 [13] | GI50 [14] | GI50 [15] | GI50 [16] | GI50 [17] | GI50 [18] | GI50 [19] | GI50 [20]
1 | O=C1Nc2c(Cl)cc(Cl)cc2/C1=N/NC(=O)c1ccncc1 | 17.4 µM (inactive) | > 100 µM (inactive) | > 100 µM (inactive) | 38 µM (inactive) | 18.4 µM (inactive) | 27.2 µM (inactive) | 25.8 µM (inactive) | 33.2 µM (inactive) | 30.9 µM (inactive) | 15.7 µM (inactive) | 22.8 µM (inactive) | 22.2 µM (inactive) | 20.6 µM (inactive) | 20 µM (inactive) | > 100 µM (inactive) | 18.1 µM (inactive) | 19.6 µM (inactive) | 27.9 µM (inactive) | – | –
2 | N=C(N)NS(=O)(=O)c1ccc(NC(=O)c2cccc3c(O)c4ccccc4nc23)cc1 | 58.1 µM (inactive) | > 76.4 µM (inactive) | > 100 µM (inactive) | > 100 µM (inactive) | > 100 µM (inactive) | > 100 µM (inactive) | > 78.5 µM (inactive) | 56.2 µM (inactive) | > 100 µM (inactive) | – | > 92.3 µM (inactive) | > 100 µM (inactive) | 71.1 µM (inactive) | > 41 µM (inactive) | 59.4 µM (inactive) | 48 µM (inactive) | > 100 µM (inactive) | > 100 µM (inactive) | > 100 µM (inactive) | > 100 µM (inactive)
3 | CC(C)(C)OC(=O)NCC(O)CNC(=O)OC(C)(C)C | > 100 µM (inactive) | > 100 µM (inactive) | > 100 µM (inactive) | > 100 µM (inactive) | > 100 µM (inactive) | > 100 µM (inactive) | > 100 µM (inactive) | > 100 µM (inactive) | > 100 µM (inactive) | – | > 100 µM (inactive) | > 100 µM (inactive) | > 100 µM (inactive) | > 100 µM (inactive) | > 100 µM (inactive) | > 100 µM (inactive) | > 100 µM (inactive) | > 100 µM (inactive) | > 100 µM (inactive) | > 100 µM (inactive)
4 | CCOC(=O)N(C)C(=C(F)F)C(F)(F)F | 21.7 µM (inactive) | – | 29 µM (inactive) | > 10 µM (inactive) | – | 21 µM (inactive) | 25.2 µM (inactive) | 25.4 µM (inactive) | 35 µM (inactive) | 18.5 µM (inactive) | 20.5 µM (inactive) | 28 µM (inactive) | 23.8 µM (inactive) | – | – | 30.4 µM (inactive) | 31.5 µM (inactive) | 32.7 µM (inactive) | 33.2 µM (inactive) | 26.8 µM (inactive)
5 | Cc1cc(C)c2c(c1)N[S@@](=O)S2 | 15 µM (inactive) | > 100 µM (inactive) | 27.9 µM (inactive) | 23.4 µM (inactive) | 25.2 µM (inactive) | 18.2 µM (inactive) | 57.9 µM (inactive) | 45.8 µM (inactive) | 24 µM (inactive) | – | 35.4 µM (inactive) | 23.1 µM (inactive) | 17.7 µM (inactive) | 10.6 µM (inactive) | 30.8 µM (inactive) | 16.8 µM (inactive) | 16.6 µM (inactive) | 23 µM (inactive) | – | –
6 | Cc1ccccc1C1OC(=O)c2ccc3ccccc3c21 (stereo not given) | 4.57 µM (inactive) | 2.36 µM (inactive) | 5.48 µM (inactive) | 4.63 µM (inactive) | 6.21 µM (inactive) | 1.37 µM (inactive) | 0.442 µM (active) | 10.8 µM (inactive) | 5.6 µM (inactive) | – | 5.71 µM (inactive) | 9.51 µM (inactive) | 3.12 µM (inactive) | 2.59 µM (inactive) | 8.87 µM (inactive) | 3.57 µM (inactive) | 4.62 µM (inactive) | 2.77 µM (inactive) | – | –
7 | CSc1ccc(N2C(=O)C3c4[nH]c5ccccc5c4C4CCC(C(C)(C)C)CC4C3C2=O)cc1 (stereo not given) | 14.9 µM (inactive) | 17.8 µM (inactive) | 15.3 µM (inactive) | 13.9 µM (inactive) | 19.9 µM (inactive) | 10 µM (inactive) | 12.2 µM (inactive) | 11.3 µM (inactive) | 28.4 µM (inactive) | – | 15.5 µM (inactive) | 10.3 µM (inactive) | 12.1 µM (inactive) | 20.3 µM (inactive) | 19.1 µM (inactive) | 16.4 µM (inactive) | 46.8 µM (inactive) | 16.5 µM (inactive) | – | –
8 | O=C1CCCc2cc3c(cc21)CC1(Cc2ccccc2C1)C3 | 6.28 µM (inactive) | 9.12 µM (inactive) | 6.17 µM (inactive) | 4.55 µM (inactive) | – | 1.93 µM (inactive) | 6.04 µM (inactive) | 10.8 µM (inactive) | 2.5 µM (inactive) | 1.42 µM (inactive) | 6.78 µM (inactive) | 6.31 µM (inactive) | 6.28 µM (inactive) | 8.83 µM (inactive) | – | 5.38 µM (inactive) | 3.48 µM (inactive) | 1.46 µM (inactive) | – | 5.24 µM (inactive)
